Settings: not given

Structure (SMILES)	boiling point [°C]	log10 vapour pressure (mmHg)	melting point [°C]	log10 biodegradation half-life (days)	ready biodegradability	log10 Koa	log10 Henry constant (atm·m³/mol)	logP
CCC(C)(C)c1ccc(O)cc1	262	-2.7	95	–	–	–	–	–
CCC(CC)COCCC(=O)O	343	–	32.5	–	–	–	–	–
CCCCCC(C)CC (centres undefined)	144	0.796	-108	0.699	–	–	–	–
N#Cc1cc([N+](=O)[O-])c(Cl)c([N+](=O)[O-])c1	–	–	141	–	–	–	–	–
N#CC1CC2CCC1C2 (centres undefined)	–	–	44	–	–	–	–	–
C/C=C/CCCO	159	–	–	–	–	–	–	–
CCCCCCCCCl	182	-0.0223	-57.8	–	readily biodegradable	–	–	–
Clc1cc2c(Cl)cccc2c(Cl)c1Cl	–	-4.96	141	–	–	8.29	–	–
CC(=O)/C(C)=N/O	186	–	76.8	–	–	–	–	–
Oc1cc(O)cc(O)c1	–	–	218	–	readily biodegradable	–	–	–
C=COCCOCCO	196	–	–	–	–	–	–	–
C[N+]1([O-])[C@@H]2C[C@@H](OC(=O)[C@H](CO)c3ccccc3)C[C@H]1[C@@H]1O[C@@H]12 (some centres undefined)	–	–	80	–	–	–	–	–
O=c1n(-c2ccccc2)c(=O)n(-c2ccccc2)c(=O)n1-c1ccccc1	–	–	285	–	–	–	–	–
Nc1c(Br)cc(O)c2c1C(=O)c1ccccc1C2=O	–	–	–	–	not readily biodegradable	–	–	–
C(=C(c1ccccc1)c1ccccc1)c1ccccc1	–	–	72.5	–	–	–	–	–
CN[C@@H](C)Cc1ccccc1.Cl	–	–	172	–	–	–	–	–
CC(C)(C)c1cc(O)ccc1O	273	–	128	–	–	–	–	–
COc1ccc(Cl)cc1	198	–	–	–	–	–	–	–
O=C(Oc1ccc2ccccc2c1)c1ccccc1O	–	–	95.5	–	–	–	–	–

Structure (SMILES)	boiling point [°C]	log10 vapour pressure (mmHg)	melting point [°C]	log10 biodegradation half-life (days)	ready biodegradability	log10 Koa	log10 Henry constant (atm·m³/mol)	logP
CC(=O)c1ccc(C(C)=O)cc1	–	–	112	–	–	–	–	–
CCCCCC(=O)c1ccccc1	265	–	27	–	–	–	–	–
CCOC(=O)C1(C(=O)OCC)CCCC1	210	–	–	–	–	–	–	–
Clc1cc2c(c(Cl)c1Cl)Oc1cc(Cl)c(Cl)c(Cl)c1O2	–	-10.4	285	–	–	11	–	–
O=CCO	–	–	97	–	–	–	-7.62	–
O=C(O)c1ccc(O)c([N+](=O)[O-])c1	–	–	230	–	–	–	–	–
CC(C)c1ccc(C(=O)O)cc1	–	–	118	–	readily biodegradable	–	–	–
CCCCCCCOC=O	178	–	–	–	–	–	–	–
CCCCBr	101	1.62	-112	–	–	–	–	–
CC(C)(C)C(O)/C(=C\c1ccc(Cl)cc1Cl)n1cncn1 (centres undefined)	–	-4.43	147	–	–	–	–	–
O=C1OC(=O)c2c1ccc(Cl)c2Cl	329	–	121	–	–	–	–	–
O=[N+]([O-])c1ccc2c(c1)Cc1ccccc1-2	–	–	157	–	–	–	–	–
CCC(C)COC(C)=O (centres undefined)	140	–	–	–	–	–	–	–
O=[N+]([O-])c1cc(S(=O)(=O)c2ccc(F)c([N+](=O)[O-])c2)ccc1F	–	–	194	–	–	–	–	–
CC/C=C\C(C)(C)C	–	–	-137	–	–	–	–	–
O=C(O)c1cc(I)c(O)c(I)c1	–	–	237	–	–	–	–	–
Ic1ccc2c(c1)Oc1ccccc1O2	–	-4.5	95	–	–	–	–	–
CC(Oc1ccc(Oc2ncc(C(F)(F)F)cc2Cl)cc1)C(=O)O (centres undefined)	–	–	108	–	–	–	–	–
CCCCOCCCC	141	0.779	–	–	not readily biodegradable	3.89	-2.22	–

Structure (SMILES)	boiling point [°C]	log10 vapour pressure (mmHg)	melting point [°C]	log10 biodegradation half-life (days)	ready biodegradability	log10 Koa	log10 Henry constant (atm·m³/mol)	logP
COC(=O)C1=C(C)NC(C)=C(C(=O)OC)C1c1ccccc1[N+](=O)[O-]	–	–	173	–	–	–	–	–
CC(C)(C#N)Nc1nc(Cl)nc(NC2CC2)n1	–	–	170	–	–	–	–	–
O=C(O)Cc1cn(-c2ccccc2)nc1-c1ccc(Cl)cc1	–	–	150	–	–	–	–	–
CCCCCCCCC(O)CCCCCCCC	–	–	61	–	–	–	–	–
CC1CCCC(C(C)C)C1 (centres undefined)	166	–	–	–	–	–	–	–
CCOC(CN(CC)CC)OCC	194	–	–	–	–	–	–	–
O=C(O)C(Cc1cc(I)c(O)c(I)c1)c1ccccc1 (centres undefined)	–	–	164	–	–	–	–	–
Cc1ccc(NC(=S)Nc2ccc(C)cc2)cc1	–	–	183	–	–	–	–	–
CC=CC(C)(C)O	112	–	–	–	–	–	–	–
NCCO	171	-0.394	10.5	–	readily biodegradable	–	–	–
Cc1cc(Cl)nc(Cl)n1	219	–	46.5	–	–	–	–	–
Brc1ccc(Oc2cc(Br)c(Br)cc2Br)c(Br)c1	–	-7.51	–	–	–	11.3	–	7.32
COC(=O)CCc1ccccc1	238	–	–	–	–	–	–	–
COCCCN	118	–	–	–	not readily biodegradable	–	–	–
C/C(=C/c1ccccc1)CC(N)=O	–	–	133	–	–	–	–	–
CCCC(CC)C1(CC)C(=O)NC(=O)NC1=O (centres undefined)	–	–	122	–	–	–	–	–
O=[N+]([O-])c1cccc(SSc2cccc([N+](=O)[O-])c2)c1	–	–	84	–	–	–	–	–
c1ccc(N=Nc2ccc(Nc3ccccc3)cc2)cc1	–	–	90	–	–	–	–	–

Same assay, conditions: fish

Structure (SMILES)	log10 biotransformation half-life (days)	log10 BCF
Clc1ccc(-c2cc(Cl)c(Cl)c(Cl)c2Cl)cc1	2.36	–
CC(C)=C1C=C2CCC3C(C)(C(=O)O)CCCC3(C)C2CC1 (centres undefined)	–	2.17
O=[N+]([O-])c1ccc(Cl)cc1Cl	0.83	2.07
FC(F)C(F)(F)OCC(Cn1cncn1)c1ccc(Cl)cc1Cl (centres undefined)	1.23	–
CC(C)(c1cc(Br)c(O)c(Br)c1)c1cc(Br)c(O)c(Br)c1	–	2.43
Clc1cc2c(c(Cl)c1Cl)Oc1cc(Cl)c(Cl)c(Cl)c1O2	1.21	3.93
CC(=CC(C)(C)C)CC(C)(C)C	0.7	–
CCCCOCCCC	-0.25	1.86
Brc1ccc(Oc2cc(Br)c(Br)cc2Br)c(Br)c1	1.95	6.01

From the OPERA property sets (Mansouri et al. 2018)
